Experimental data as given in ChEMBL document CHEMBL1121697, “Carbocyclic analogues of 5-fluorouracil nucleosides” (1981).

Experiments:
Type in all cases: functional
Mus musculus [1] = assay: Life span ratio of mice treated to that of control mice at dose 50 mg/kg, ip; conditions: route intraperitoneal
Mus musculus [2] = species on record: Mus musculus; assay: Median life span of the treated mice to that of control mice; 11.1/10.9
Mus musculus [3] = assay: Average weight change in treated mice to that of control mice on the same day of administration of 50 mg/kg of compound in a q. d. 1-9 schedule
Mus musculus [4] = assay: Number of deaths recorded in mice with P388 leukemia on days 1-5 after intraperitoneal administration of 50 mg/kg of compound in a q.d. 1-9 schedule; 0/6
Mus musculus [5] = assay: Median life span of the treated P388 leukemia mice to that of control mice after intraperitoneal administration of 600 mg/kg of compound in a q.d. 1-5 schedule; 13.1/12.0
Mus musculus [6] = assay: Median life span of the treated P388 leukemia mice to that of control mice after intraperitoneal administration of 400 mg/kg of compound in a q.d. 1-5 schedule; 14.3/11.9
Mus musculus [7] = assay: Number of deaths recorded in mice with P388 leukemia on days 1-5 after intraperitoneal administration of 600 mg/kg of compound in a q.d. 1-5 schedule; 0/6
Mus musculus [8] = assay: Number of deaths recorded in mice with P388 leukemia on days 1-5 after intraperitoneal administration of 50 mg/kg of compound in a q.d. 1-9 schedule; 0/5
Mus musculus [9] = assay: Number of deaths recorded in mice with P388 leukemia on days 1-5 after intraperitoneal administration of 100 mg/kg of compound in a q.d. 1-9 schedule; 0/6
Mus musculus [10] = assay: Average weight change in treated P388 leukemia mice to that of control mice on administration of 50 mg/kg of compound in a q. d. 1-9 schedule
Mus musculus [11] = assay: Median life span of the treated L1210 leukemia mice to that of control mice after intraperitoneal administration of 100 mg/kg of compound in a q.d. 1-9 schedule; 8.3/8.2
Mus musculus [12] = assay: Life span ratio of L1210 leukemia mice treated to that of control mice at dose 100 mg/kg, ip; conditions: route intraperitoneal
Mus musculus [13] = assay: Life span ratio of P388 leukemia mice treated to that of control mice at dose 50 mg/kg, ip; conditions: route intraperitoneal
Mus musculus [14] = assay: Life span ratio of P388 leukemia mice treated to that of control mice at dose 200 mg/kg, ip; conditions: route intraperitoneal
Mus musculus [15] = assay: Median life span of the treated P388 leukemia mice to that of control mice after intraperitoneal administration of 200 mg/kg of compound in a q.d. 1-5 schedule 12.0/11.9
Mus musculus [16] = assay: Average weight change in treated P388 leukemia mice to that of control mice on administration of 600 mg/kg of compound in a q. d. 1-5 schedule
Mus musculus [17] = assay: Median life span of the treated P388 leukemia mice to that of control mice after intraperitoneal administration of 100 mg/kg of compound in a q.d. 1-9 schedule; 11.4/11.3
Mus musculus [18] = assay: Average weight change in treated P388 leukemia mice to that of control mice on administration of 100 mg/kg of compound in a q. d. 1-9 schedule
Mus musculus [19] = assay: Median life span of the treated P388 leukemia mice to that of control mice after intraperitoneal administration of 50 mg/kg of compound in a q.d. 1-9 schedule; 10.5/10.9
Mus musculus [20] = assay: Number of deaths recorded in mice with P388 leukemia on days 1-5 after intraperitoneal administration of 400 mg/kg of compound in a q.d. 1-5 schedule; 0/6
Mus musculus [21] = assay: Number of deaths recorded in mice with L-1210 leukemia on days 1-5 after intraperitoneal administration of 100 mg/kg of compound in a q.d. 1-9 schedule; 0/6
Mus musculus [22] = assay: Number of deaths recorded in mice with P388 leukemia on days 1-5 after intraperitoneal administration of 200 mg/kg of compound in a q.d. 1-5 schedule; 0/6
Mus musculus [23] = assay: Life span ratio of P388 leukemia mice treated to that of control mice at dose 100 mg/kg, ip; conditions: route intraperitoneal
Mus musculus [24] = assay: Average weight change in treated P388 leukemia mice to that of control mice on administration of 400 mg/kg of compound in a q. d. 1-5 schedule
Mus musculus [25] = assay: Life span ratio of P388 leukemia mice treated to that of control mice at dose 600 mg/kg, ip; conditions: route intraperitoneal
Mus musculus [26] = assay: Life span ratio of P388 leukemia mice treated to that of control mice at dose 400 mg/kg, ip; conditions: route intraperitoneal
Mus musculus [27] = assay: Average weight change in treated P388 leukemia mice to that of control mice on administration of 200 mg/kg of compound in a q. d. 1-5 schedule
Mus musculus [28] = assay: Average weight change in treated L1210 leukemia mice to that of control mice on administration of 100 mg/kg of compound in a q. d. 1-9 schedule

**Q.** What does the source list for `O=c1[nH]c(=O)n(C2CC(CO)C(O)C2O)cc1F` (stereo not drawn)?
**A.** T/C (Mus musculus [1]): 101%; Median life span (Mus musculus [2]): 11.1 days; Weight change (Mus musculus [3]): 0.9 g; No. of deaths (Mus musculus [4]): 0

**Q.** With `O=c1[nH]c(=O)n([C@H]2C[C@H](O)[C@@H](CO)O2)cc1F` [FLOXURIDINE] as the compound, how does the Median life span (Mus musculus [5]) read?
**A.** Its Median life span is 13.1 days.

**Q.** And the Median life span (Mus musculus [6])?
**A.** The Median life span was 14.3 days.

**Q.** And the No. of deaths (Mus musculus [7])?
**A.** Its No. of deaths is 0.

**Q.** And the No. of deaths (Mus musculus [8])?
**A.** The No. of deaths was 0.

**Q.** And the No. of deaths (Mus musculus [9])?
**A.** Its No. of deaths is 0.

**Q.** And the Weight change (Mus musculus [10])?
**A.** The Weight change was 1 g.

**Q.** And the Median life span (Mus musculus [11])?
**A.** Its Median life span is 8.3 days.

**Q.** What about the T/C (Mus musculus [12]) of the same compound?
**A.** Its T/C is 101%.

**Q.** And the T/C (Mus musculus [13])?
**A.** Its T/C is 96%.

**Q.** What about the T/C (Mus musculus [14]) of the same compound?
**A.** The T/C was 100%.

**Q.** And the Median life span (Mus musculus [15])?
**A.** The Median life span was 12 days.

**Q.** And the Weight change (Mus musculus [16])?
**A.** Its Weight change is -0.7 g.

**Q.** What about the Median life span (Mus musculus [17]) of the same compound?
**A.** The Median life span was 11.4 days.

**Q.** And the Weight change (Mus musculus [18])?
**A.** Its Weight change is 0.6 g.

**Q.** And the Median life span (Mus musculus [19])?
**A.** Its Median life span is 10.5 days.

**Q.** And the No. of deaths (Mus musculus [20])?
**A.** The No. of deaths was 0.

**Q.** And the No. of deaths (Mus musculus [21])?
**A.** The No. of deaths was 0.

**Q.** And the No. of deaths (Mus musculus [22])?
**A.** Its No. of deaths is 0.

**Q.** And the T/C (Mus musculus [23])?
**A.** Its T/C is 100%.

**Q.** And the Weight change (Mus musculus [24])?
**A.** The Weight change was -0.3 g.

**Q.** And the T/C (Mus musculus [25])?
**A.** The T/C was 109%.

**Q.** What about the T/C (Mus musculus [26]) of the same compound?
**A.** The T/C was 120%.

**Q.** What about the Weight change (Mus musculus [27]) of the same compound?
**A.** Its Weight change is 0.8 g.

**Q.** What about the Weight change (Mus musculus [28]) of the same compound?
**A.** The Weight change was -0.5 g.
